In patent US11504310B2, “Aqueous microemulsion” (Firmenich SA, priority 2017, dated 2022):

Tests used:
[1] = logP of fragrance raw materials and fragrances
[2] = single raw materials of fragrances F1-F4 (Tables 1-4)

Row | Compound | logP [1] | other results
1 | 1-OXA-12/13-CYCLOHEXADECEN-2-ONE [HABANOLIDE ®] | – | logP [1, 2]: 4.88
2 | 2/3-METHYLBUTYL ACETATE [AMYL ACETATE] | – | logP [1, 2]: 2.26
3 | CCCC(C)C(=O)OCC (racemic) [(+ −)-ETHYL 2-METHYLPENTANOATE] | 2.76 | –
4 | CCCCCCC1CCC(=O)O1 (racemic) [DECALACTONE CP, (+ −)-4-DECANOLIDE] | 2.72 | –
5 | C=CC(C)CCCC(C)(C)O (racemic) [DIHYDROMYRCENOL PURE, (+ −)-2,6-DIMETHYL-7-OCTEN-2-OL] | 3.47 | –
6 | CCC1CCC(=O)O1 (racemic) [GAMMA HEXALACTONE, (+ −)-4-HEXANOLIDE] | – | logP (physchem): 0.6
7 | CC(=O)/C(C)=C/C1C(C)=CCCC1(C)C (racemic) [ISORALDEINE 70 P, (+ −)-(3E)-3-methyl-4-(2,6,6-trimethyl-2-cyclohexen-1-yl)-3-buten-2-one] | 4.84 | –
8 | CC1/C=C/CCCCCCCCCCC(=O)C1 (racemic) [MUSCENONE DELTA, (+ −)-(4E)-3-METHYL-4-CYCLOPENTADECEN-1-ONE] | 5.75 | –
9 | CCCCCC1(C)CCC(C)(C)C1=O (racemic) [VELOUTONE, (+ −)-2,2,5-trimethyl-5-pentylcyclopentanone] | 4.34 | –
10 | Cc1ccc2c(c1)OCC(=O)CO2 [CALONE ®, 7-methyl-2H-1,5-benzodioxepin-3(4H)-one] | 2.43 | –
11 | CC(C)(O)CCC1CCCCC1 [CORANOL, 4-CYCLOHEXYL-2-METHYL-2-BUTANOL] | 3.98 | –
12 | CCOc1cc(C=O)ccc1O [ETHYL VANILLIN, 3-ethoxy-4-hydroxybenzaldehyde] | – | logP (physchem): 1.58
13 | O=C1CCCCCCCCCCCCCCO1 [EXALTOLIDE ®, oxacyclohexadecan-2-one] | 6.15 | –
14 | CCOC(=O)CC1(C)OCCO1 [FRUCTONE ®, ETHYL 2-METHYL-1,3-DIOXOLANE-2-ACETATE] | 1.3 | –
15 | CC(C)=CCCC(C)=CCO [GERANIOL LJ] | 3.47 | –
16 | CCC(=O)OCC(C)(C)O[C@@H](C)[C@@H]1CCCC(C)(C)C1 [HELVETOLIDE ®, (+)-(1S,1′R)-2[1-(3′,3′-DIMETHYL-1′-CYCLOHEXYL)ETHOXY]-2-METHYLPROPYL PROPANOATE] | – | logP [1, 2]: 5.51
17 | CC1=CC(C)C(C=O)C(C)C1 (centres unmarked) [ISOCYCLOCITRAL] | – | logP [1, 2]: 3.27
18 | COC(=O)/C=C/c1ccccc1 [METHYL CINNAMATE, METHYL (E)-3-PHENYL-2-PROPENOATE] | 2.62 | –
19 | COC(=O)c1c(C)cc(O)c(C)c1O [MOUSSE CRISTAL, METHYL 2,4-DIHYDROXY-3,6-DIMETHYLBENZOATE] | 3.22 | –
20 | OCCCc1ccccc1 [PHENYLPROPYL ALCOHOL, 3-PHENYL-1-PROPANOL] | – | logP [1, 2]: 1.88
21 | CC(C)=CC1CC(C)CCO1 (centres unmarked) [ROSE OXIDE, TETRAHYDRO-4-METHYL-2-(2-METHYL-1-PROPENYL)-2H-PYRAN] | 3.58 | –
22 | CCC(=O)OC1CC2CC1C1CC=CC21 (centres unmarked) [VERDYL PROPIONATE, TRICYCLO[5.2.1.0(2,6)]DEC-3-EN-8-YL PROPANOATE] | 3.34 | –
23 | ALLYL (2/3-METHYLBUTOXY)ACETATE [ALLYL AMYL GLYCOLATE] | – | logP [1, 2]: 2.34
